Results: patent publication US4923865A, “Substituted 1-(1H-imidazol-4-yl)alkyl-benzamides as anti-ischemics and as alpha-2-adrenergic receptor agonists” (U C B Societe Anonyme, priority 1988, dated 1990)
Where two headings read alike, the source gives them in different places.

Legend:
[1] = target: T1, presynaptic α2 -adrenergic receptors (Cavia porcellus, UniProt Q60474); test: Inhibition of the contraction of electrically stimulated guinea-pig ileum
T1 construct: Stimulation of a guinea-pig ileum; from tissue; host or cells: guinea-pig ileum longitudinal muscle strips
T1 sequence (Q60474 1-464): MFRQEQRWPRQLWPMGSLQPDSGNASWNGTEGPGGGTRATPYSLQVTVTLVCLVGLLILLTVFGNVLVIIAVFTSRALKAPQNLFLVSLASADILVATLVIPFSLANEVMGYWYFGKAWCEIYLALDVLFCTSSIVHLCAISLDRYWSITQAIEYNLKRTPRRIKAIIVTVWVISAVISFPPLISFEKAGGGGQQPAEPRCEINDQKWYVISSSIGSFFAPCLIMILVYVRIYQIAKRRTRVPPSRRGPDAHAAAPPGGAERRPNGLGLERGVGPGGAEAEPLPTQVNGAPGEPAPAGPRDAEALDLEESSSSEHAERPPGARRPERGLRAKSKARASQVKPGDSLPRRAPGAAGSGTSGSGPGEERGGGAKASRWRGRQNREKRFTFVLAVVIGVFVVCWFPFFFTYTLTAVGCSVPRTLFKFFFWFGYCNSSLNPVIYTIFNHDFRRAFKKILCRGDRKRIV
From the text: (c) Stimulation of a guinea-pig ileum. Longitudinal muscles strips attached to an isometric strain gauge are suspended in Tyrode's solution and are stretched under a tension of 1 g (G. M. DREW. Brit. J. Pharmacol. 64, (1978), 293-300; M. ANDREJAK et al., Naunyn-Schmiedelberg's Arch. Pharmacol. 314, (1980), 83-87).
Electrical stimulation of the parasympathetic nerves associated with the ileum fragments causes a contraction of the muscle. This contraction is reduced in the presence of a presynaptic α2 -agonist and the magnitude by which the contraction is reduced depends on the concentration of the agonist used. This effect is antagonized by the simultaneous presence of an α2 -antagonist such as α-yohimbine. The compounds to be studied have been tested at increasing concentrations ranging from 10^-10 to 10^-3 mole/l.
The concentration (IC50 in mole/l) that reduces by 50% the intensity of the contraction of the muscle is determined.
In the presence of α-yohimbine at a concentration of 10^-6 mole/l, the concentration of the compounds A or B, for example, that is required for reducing muscle contraction intensity by 50% is higher, and becomes greater than 10^-6 mole/l, which gives additional confirmation that the compounds of the invention act really at the level of the presynaptic α2 -adrenergic receptors.

male NMRI mice = test: Toxicity, Irwin's test (lethal dose); type: in vivo; settings: intraperitoneal
Procedure: 5. Toxicity. The toxicity of the compounds according to the present invention has been determined in male NMRI mice by means of Irwin's test (S. IRWIN, Psychopharmacologia, 13, (1968), 222-257).
Progressive doses of the test compound are administered intraperitoneally to groups of three mice until the lethal dose is reached (dose causing the death of two out of three animals within 48 hours). In Table IX below, the lethal dose in mg/kg found for the compounds of the invention is given. It can be seen from this Table that the compounds of the invention are not very toxic.

myocardial ischemia = test: Artificially induced acute coronary insufficiency in an awake dog (ST-segment elevation); type: in vivo; settings: Canis lupus familiaris, 0.1 h, intravenous, 6 min coronary occlusion, groups of ten animals, read-out: DE20 (dose producing a mean reduction of at least 20% of the ST-segment elevation)
From the text: Because of the reduction in the oxygen supply which results from this, the occlusion produces myocardial ischemia which is expressed on the electrocardiogram by a reproducible and quantifiable ST-segment elevation. The anti-ischemic action of a compound results in a reduction of the magnitude of the ST-segment elevation. (P. R. MAROKO and E. BRAUNWALD, Circulation, 53, (1976, Suppl. I), 162-168; S. E. EPSTEIN et al., Circulation, 53, (1976, Suppl. I), 191-197).

[2] = target: T1, presynaptic α2 -adrenergic receptors; test: Stimulation of the isolated guinea-pig atria (reduction in tachycardia); settings: isolated guinea-pig atria, electrical stimulation; read-out: IC30 (30% reduction in the maximum tachycardia)
From the text: (b) Stimulation of the isolated guinea-pig atria. The release of noradrenalin at the level of the nerve endings is mediated by a feedback regulating mechanism through the presynaptic α2 -adrenergic receptors. […] Ed. D. S. DAVIES, J. L. REID, Pitman, London.
The electrical stimulation of the isolated guinea-pig atria induces a release of noradrenalin which results in an increase in the rate of the heart beat (tachycardia). This tachycardia is inhibited by an α2 -agonist such as, for example, clonidine, in a proportion which depends on the dose of the agonist used. The action of the α2 -agonist may be limited in the presence of an α2 -specific antagonist such as α-yohimbine.
The in vitro activity of the compounds of the invention on the presynaptic α2 -adrenergic receptors has been studied on the isolated guinea-pig atria, electrically stimulated according to the method described by I. C. MEDGETT et al., Naunyn-Schmiedeberg's Arch. Pharmacol. 304, (1978), 215-221. The compound to be studied is tested in increasing concentrations ranging from 10^-10 to 10^-3 mole/l. The concentration (IC30 in mole/l) which causes a 30% reduction in the maximum tachycardia obtained initially during the electrical stimulation of the atria in the absence of the compound to be tested, is determined.
On the other hand, in the presence of a concentration of 10^-6 mole/l of α-yohimbine, the concentration of compound A necessary to obtain a reduction of 30% in the tachycardia is greater than 10^-7 mole/l.

[3] = tested on: stenosis at the level of a coronary artery; test: Effort trial on a moving belt in dogs with coronary artery stenosis; type: in vivo, dog; settings: maximum effort at 12 Km/h for 1 minute
Procedure: (b) Effort trial on a moving belt. In this test, a group of at least four dogs is used (equipped with intracardiac electrodes), the dogs having an organic stenosis at the level of a coronary artery. This stenosis causes imbalance between the demand and supply of oxygen when the animal is required to make an effort. This imbalance is expressed on the electrocardiogram by an increase in the ST-segment.
In the trial, the dog runs at a speed of 12 km/h on a moving belt having a slope of 15°. This maximum effort is required for one minute. During the trial, the increase in the ST-segment is recorded, together with the natural increase in the pulse rate. The experiment is repeated at least four times, and the mean of the values obtained is taken as reference (100%) for the group of animals. The animals are then allowed to rest for a minimum of 24 hours before being subjected to a new effort trial under the influence of the compound to be studied.
The compound to be studied is administered slowly (over 1 minute) by intravenous injection 5 minutes before the new effort trial. In the course of the latter, the variations in the same parameters are recorded.

[4] = guinea-pig ileum, electrical stimulation, read-out: IC50 (reduces by 50% the intensity of the contraction of the muscle)

Compound | IC50 [1, 4] [nM] | lethal dose (death of two out of three animals within 48 hours) (male NMRI mice) [mg/kg] | ED20 (myocardial ischemia) [µmol/kg] | further results
CC(c1c[nH]cn1)c1cccc(C(N)=O)c1O.Cl (single isomer, unassigned; (+)) [P, (+)-2-hydroxy-3-[1-(1H-imidazol-4-yl)ethyl]-benzamide hydrochloride] | 2 | 294 | – | –
CC(c1c[nH]cn1)c1cccc(C(N)=O)c1O.Cl (stereo not drawn) [B, 2-hydroxy-3-[1-(1H-imidazol-4-yl)ethyl]-benzamide hydrochloride] | 3 | 267 | 0.02 | IC30 [2]: 0.75 nM; IC50 ([1]; in the presence of 10^-6 mole/l of α-yohimbine, read-out: concentration required for reducing muscle contraction intensity by 50%): > 1000 nM
CNC(=O)c1cccc(Cc2c[nH]cn2)c1O.Cl [C, 2-hydroxy-3-[(1H-imidazol-4-yl)methyl]-N-methylbenzamide hydrochloride] | – | 267 | 0.3 | reduction in ST-segment ([3]; dose 0.32 μmole/kg i.v.): 50%; reduction in the pulse rate ([3]; dose 0.32 μmole/kg i.v.): 1 beats/min.; IC30 [2]: 130 nM
NNC(=O)c1cccc(Cc2c[nH]cn2)c1O [Compound D, 2-hydroxy-3-[(1H-imidazol-4-yl)methyl]-benzohydrazide] | – | 232 | 3 | IC30 [2]: 220 nM
Cl.O=C(NCCO)c1cccc(Cc2c[nH]cn2)c1O [E, 2-hydroxy-N-(2-hydroxyethyl)-3-[(1H-imidazol-4-yl)methyl]-benzamide hydrochloride] | 60000 | 893 | < 3 | –
COc1c(Cc2c[nH]cn2)cccc1C(N)=O.Cl [F, 3-[(1H-imidazol-4-yl)methyl]-2-methoxybenzamide hydrochloride] | 70000 | 802 | < 3 | IC30 [2]: 70 nM
NC(=O)c1cc(Cc2c[nH]cn2)ccc1O [G, 2-hydroxy-5-[(1H-imidazol-4-yl)methyl]-benzamide] | – | 651 | < 1 | –
CN(C)C(=O)c1cccc(Cc2c[nH]cn2)c1O [H, 2-hydroxy-3-[(1H-imidazol-4-yl)methyl]-N,N-dimethylbenzamide] | – | 245 | – | –
Cl.NC(=O)c1c(O)ccc(Cc2c[nH]cn2)c1O [I, 2,6-dihydroxy-3-[(1H-imidazol-4-yl)methyl]-benzamide hydrochloride] | 300 | > 270 | 0.32 | –
CC(C)(C)c1cc(Cc2c[nH]cn2)c(O)c(C(N)=O)c1 [J, 5-tert-butyl-2-hydroxy-3-[(1H-imidazol-4-yl)methyl]-benzamide] | 30000 | – | – | –
Cc1ccc(Cc2c[nH]cn2)c(O)c1C(N)=O.Cl [K, 2-hydroxy-3-[(1H-imidazol-4-yl)methyl]-6-methylbenzamide hydrochloride] | – | > 268 | 0.32 | –
Cc1ccc(C(N)=O)c(O)c1Cc1c[nH]cn1 [L, 2-hydroxy-3-[(1H-imidazol-4-yl)methyl]-4-methylbenzamide] | 30 | 231 | – | –
Cl.O=C(NO)c1cccc(Cc2c[nH]cn2)c1O [M, N,2-dihydroxy-3-[(1H-imidazol-4-yl)methyl]-benzamide hydrochloride] | 400 | > 288 | – | –
CC(c1c[nH]cn1)c1ccc(O)c(C(N)=O)c1O.Cl (stereo not drawn) [N, 2,6-dihydroxy-3-[1-(1H-imidazol-4-yl)ethyl]-benzamide hydrochloride] | – | 284 | – | –
Cc1c(Cc2c[nH]cn2)ccc(O)c1C(N)=O.Cl [O, 6-hydroxy-3-[(1H-imidazol-4-yl)methyl]-2-methylbenzamide hydrochloride] | – | > 268 | – | –
Clc1cccc(Cl)c1N=C1NCCN1 [clonidine, reference compound] | 20 | – | – | IC30 [2]: 3.2 nM
CC(C)NCC(O)COc1cccc2ccccc12 (stereo not drawn) [propranolol, 1-(isopropylamino)-3-(1-naphthyloxy)-2-propanol, reference compound] | – | – | 2 | reduction in ST-segment ([3]; dose 1.0 μmole/kg i.v.): 74%; reduction in the pulse rate ([3]; dose 1.0 μmole/kg i.v.): 35 beats/min.
